In patent publication US12552753B2, “Methods and compositions for targeting Tregs using CCR8 inhibitors” (Nanjing Immunophage Biomedical Co., Ltd., priority 2020, dated 2026):
Counter-ions that a name gives are not always drawn.

Target: CCR8 (Homo sapiens, UniProt P51685)
Assay: Tango assay (Tango-CCR8-Gal4-CHO-K1 cells, CCL1-stimulated, ONE-Glo luminescence)
Conditions: Tango Assay IC50, Inhibition of CCR8 Tango cell in vitro

Chain of CCR8 (P51685 whole entry, the tested form may be a part): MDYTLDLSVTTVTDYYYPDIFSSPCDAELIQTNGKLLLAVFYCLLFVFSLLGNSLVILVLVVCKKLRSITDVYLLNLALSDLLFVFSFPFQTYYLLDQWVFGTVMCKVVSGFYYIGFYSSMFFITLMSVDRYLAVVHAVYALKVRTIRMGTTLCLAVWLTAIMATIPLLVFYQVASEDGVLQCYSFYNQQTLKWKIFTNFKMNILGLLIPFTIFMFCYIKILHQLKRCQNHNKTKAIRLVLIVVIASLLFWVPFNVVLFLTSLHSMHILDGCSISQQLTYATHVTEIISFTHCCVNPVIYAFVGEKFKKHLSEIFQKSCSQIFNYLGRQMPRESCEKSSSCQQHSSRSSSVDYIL

Row | Structure (SMILES) | IC50 [nM]
1 | Cc1ccccc1C(=O)Nc1ccc(S(=O)(=O)Nc2ccc3c(c2)C(N(C)C(=O)CN(C)C)CC3)c2ccccc12 (stereo not shown) [Compound 98, N-(4-(N-(3-(2-(dimethylamino)-N-methylacetamido)-2,3-dihydro-1H-inden-5-yl)sulfamoyl)naphthalen-1-yl)-2-methylbenzamide] | > 10000
2 | CC(NS(=O)(=O)c1cccc(N2CCCC2C(=O)O)c1)C1CCCCC1 (stereo not shown) [Compound 152, 1-(3-(N-(1-cyclohexylethyl)sulfam-oyl)phenyl)pyrrolidine-2-carboxylic acid] | > 10000
3 | COc1ccccc1C(C)NS(=O)(=O)c1ccc(NC(=O)c2ccccc2C)c2ccccc12 (stereo not shown) [Compound 51, N-(4-(N-(1-(2-methoxyphenyl)ethyl)sul-famoyl)naphthalen-1-yl)-2-methylbenzamide] | > 10000
4 | Cc1ccccc1C(=O)Nc1ccc(S(=O)(=O)NC(C)c2cccc(C(=O)O)c2)cc1 (stereo not shown) [Compound 54, 3-(1-(4-(2-methylbenzamido)phe-nylsulfonamido)ethyl) benzoic acid] | > 10000
5 | COc1cc2c(cc1NS(=O)(=O)c1ccc(NC(=O)c3ccccc3C)c3ccccc13)N(C(C)=O)CC2 [Compound 39, N-(4-(N-(1-acetyl-5-methoxyindolin-6-yl)sulfamoyl)naphthalen-1-yl)-2-methylbenzamide] | > 10000
6 | CN(C)CC(=O)N1CCOc2ccc(NS(=O)(=O)c3ccc4ccccc4c3)cc21 [Compound 22, N-(4-(2-(dimethylamino)acetyl)-3,4-dihydro-2H-benzo[b][1,4]oxazin-6-yl)naphthalene-2-sulfonamide] | > 10000
7 | Cc1ccccc1C(=O)Nc1ccc(S(=O)(=O)NC(C)C=C2CCCCC2)c2ccccc12 (stereo not shown) [Compound 130, N-(4-(N-(1-cyclohexylidene-propan-2-yl)sulfamoyl)naphtha-len-1-yl)-2-methylbenzamide] | 10
8 | Cc1ccccc1C(=O)Nc1ccc(S(=O)(=O)NC2CCN(C)c3ccccc32)c2ccccc12 (stereo not shown) [Compound 32, 2-methyl-N-(4-(N-(1-methyl-1,2,3,4-tetrahydroquinolin-4-yl)sulfamoyl)naphthalen-1-yl)benzamide] | 89
9 | CCCN1CCN(c2ccc(OC)c(NS(=O)(=O)c3ccc(NC(=O)c4ccccc4C)c4ccccc34)c2)CC1 [Compound 3, N-(4-(N-(2-methoxy-5-(4-propylpiperazin-1-yl)phenyl)sulfamoyl)naphthalen-1-yl)-2-methylbenzamide] | > 10000
10 | Cc1cc(S(=O)(=O)N[C@H](C)C2CCNCC2)ccc1NC(=O)C(C)(C)C [Compound 209A, (R)-N-(2-methyl-4-(N-(1-(piperidin-4-yl)ethyl)sulfamoyl)phenyl)pivalamide hydrochloride] | 1100
11 | Cc1cc(S(=O)(=O)N[C@H](C)C2CCNCC2)ccc1NC(=O)C1CCOCC1 [Compound 212A, (R)-N-(2-methyl-4-(N-(1-(piperidin-4-yl)ethyl)sulfamoyl)phenyl)tetrahydro-2H-pyran-4-carboxamide hydrochloride] | 2500
12 | Cc1cc(S(=O)(=O)N[C@H](C)C2CCNCC2)ccc1NC(=O)Nc1ccccc1 [Compound 236A, (R)-3-methyl-4-(3-phenylureido)-N-(1-(piperidin-4-yl)ethyl)benzenesulfonamide hydrochloride] | 158
13 | Cc1ccccc1C(=O)Nc1ccc(S(=O)(=O)NC(C)c2ccccc2N)c2ccccc12 (stereo not shown) [Compound 124, N-(4-(N-(1-(2-aminophenyl)ethyl)sul-famoyl)naphthalen-1-yl)-2-methylbenzamide] | 832
14 | Cc1ccccc1C(=O)Nc1ccc(S(=O)(=O)Nc2ccc3c(c2)N(C(=O)CN(C)C)CC3)c2ccccc12 [Compound 36, N-(4-(N-(1-(2-(dimethylamino)acetyl)indolin-6-yl)sulfamoyl)naphthalen-1-yl)-2-methylbenzamide] | > 10000
15 | Cc1ccccc1C(=O)Nc1ccc(S(=O)(=O)NC(C)C(C)(C)C)c2ccccc12 (stereo not shown) [Compound 82, N-(4-(N-(3,3-dimethylbutan-2-yl)sulfamoyl)naphthalen-1-yl)-2-methylbenzamide] | 33
16 | Cc1cc(S(=O)(=O)NC(C)C23CCN(CC2)CC3)ccc1NC(=O)c1ccccc1C (stereo not shown) [Compound 241, 2-methyl-N-(2-methyl-4-(N-(1-(quiuclidin-4-yl)ethyl)sulfamoyl)phen-yl)benzamide] | 256
17 | CC(NS(=O)(=O)c1cccc(C(=O)O)c1)C1CCCCC1 (stereo not shown) [Compound 140, 3-(N-(1-cyclohexylethyl)sul-famoyl)benzoic acid] | > 10000
18 | CCCC(=O)N1CCC(NS(=O)(=O)c2ccc(-c3nc4ccccc4[nH]3)c3ccccc23)CC1 [Compound 107, 4-(1H-benzo[d]imidazol-2-yl)-N-(1-butyrylpiperidin-4-yl)naphthalene-1-sulfonamide] | 913
19 | Cc1ccccc1C(=O)Nc1ccc(S(=O)(=O)NCc2ccccc2)c2ccccc12 [Compound 281, N-(4-(N-benzylsulfamoyl)naphthalen-1-yl)-2-methylbenzamide] | > 100000
20 | Cc1ccccc1C(=O)Nc1ccc(S(=O)(=O)NC2CCc3nc(N)sc3C2)c2ccccc12 (stereo not shown) [Compound 85, N-(4-(N-(2-amino-4,5,6,7-tetrahydrobenzo[d]thia-zol-6-yl)sulfamoyl)naphthalen-1-yl)-2-methylbenzamide] | 351
21 | Cc1ccccc1C(=O)Nc1ccc(S(=O)(=O)Nc2ccc3c(c2)CN(C(=O)CN(C)C)CC3)c2ccccc12 [Compound 41, N-(4-(N-(2-(2-(dimethylamino)acetyl)-1,2,3,4-tetrahydroisoquinolin-7-yl)sulfamoyl)naphthalen-1-yl)-2-methylbenzamide] | > 10000
22 | CN1CCN(C(=O)N2CCC(NS(=O)(=O)c3ccc4[nH]c(-c5ccccc5)nc4c3)CC2)CC1 [Compound 44, N-(1-(4-methylpiperazine-1-carbonyl)piperidin-4-yl)-2-phenyl-1H-m benzo[d]imidazole-5-sulfonamide] | > 10000
23 | Cc1cc(S(=O)(=O)N[C@H](C)C2CCNCC2)ccc1NC(=O)C1CCCCC1 [Compound 208A, (R)-N-(2-methyl-4-(N-(1-(piperidin-4-yl)ethyl)sulfamoyl)phenyl) cyclohexanecarboxamide hydrochloride] | 55

Other lines, results leading:

Row | IC50 [nM] | Structure (SMILES)
24 | 5 | Cc1cc(S(=O)(=O)N[C@H](C)C2CCN(C)CC2)c(F)cc1NC(=O)c1ccccc1C [Compound 262, (R)-N-(5-fluoro-2-methyl-4-(N-(1-(1-methylpiperidin-4-yl)ethyl)sulfamoyl)phenyl)-2-methylbenzamide]
25 | 22 | COc1cc(S(=O)(=O)NC(C)C2CC3CCC2CC3)c(C)cc1NC(=O)c1ccccc1C (stereo not shown) [Compound 173, N-(4-(N-(1-(bicyclo[2.2.2]octan-2-yl)ethyl)sulfamoyl)-2-methoxy-5-methylphenyl)-2-methylbenzamide]
26 | 16 | COc1cc(NC(=O)c2ccccc2C)c(C)cc1S(=O)(=O)NC(C)C1CC2CCC1CC2 (stereo not shown) [Compound 184, N-(4-(N-(1-(bicyclo[2.2.2]octan-2-yl)ethyl)sulfamoyl)-5-methoxy-2-methylphenyl)-2-methylbenzamide]
27 | 160 | Cc1ccccc1C(=O)Nc1ccc(S(=O)(=O)NC(C)C2CCN(C(=O)OC(C)(C)C)CC2)c2ccccc12 (stereo not shown) [Compound 60, tert-butyl 4-(1-(4-(2-methylbenzamido)naph-thalene-1-sulfonamido)ethyl)piper-idine-1-carboxylate]
28 | 46 | Cc1ccccc1C(=O)Nc1ccc(S(=O)(=O)N[C@H](C)C2CCN(C)CC2)c(Cl)c1Cl [Compound 275, (R)-N-(2,3-dichloro-4-(N-(1-(1-methylpiperidin-4-yl)ethyl)sulfamoyl)phenyl)-2-methylbenzamide]
29 | 12 | Cc1cc(S(=O)(=O)N[C@H](C)C2CCNCC2)c(Cl)cc1NC(=O)c1ccccc1C [Compound 169A, (R)-N-(5-chloro-2-methyl-4-(N-(1-(piperidin-4-yl)ethyl)sulfamoyl)phen-yl)-2-methylbenzamide hydrochloride]
30 | 388 | Cc1ccccc1NC(=O)c1ccc(S(=O)(=O)N[C@H](C)C2CCNCC2)cc1C [Compound 113A, (R)-2-methyl-4-(N-(1-(piperidin-4-yl)ethyl)sulfamoyl)-N-(o-tolyl)benzamide]
31 | 6.3 | Cc1ccccc1C(=O)Nc1cc(C)c(S(=O)(=O)N[C@H](C)C2CCNCC2)cc1Cl [Compound 187A, (R)-N-(2-chloro-5-methyl-4-(N-(1-(piperidin-4-yl)ethyl)sulfamoyl)phen-yl)-2-methylbenzamide hydrochloride]
32 | > 10000 | CC(NS(=O)(=O)c1ccc2[nH]c(=O)cnc2c1)C1CC2CCC1CC2 (stereo not shown) [Compound 136, N-(1-(bicyclo[2.2.2]octan-2-yl)ethyl)-2-oxo-1,2-dihydroquinoxaline-6-sulfonamide]
33 | 6 | Cc1ccccc1C(=O)Nc1ccc(S(=O)(=O)N[C@H](C)C2CCN(C)CC2)c(F)c1C [Compound 278, (R)-N-(3-fluoro-2-methyl-4-(N-(1-(1-methylpiperidin-4-yl)ethyl)sulfamoyl)phenyl)-2-methylbenzamide hydrochloride]
34 | 3 | Cc1ccccc1C(=O)Nc1ccc(S(=O)(=O)NC(C)C2CCCCC2)c2ccccc12 (stereo not shown) [Compound 57, N-(4-(N-(1-cyclohexylethyl)sulfamo-yl)naphthalen-1-yl)-2-methylbenzamide]
35 | 301 | CC(=O)N1CCC(NS(=O)(=O)c2cc(Cl)c(NC(=O)c3ccccc3C)cc2F)CC1 [Compound 312, N-(4-(N-(1-acetylpiperidin-4-yl)sulfamoyl)-2-chloro-5-fluorophenyl)-2-methylbenzamide]
36 | > 10000 | Cc1ccccc1C(=O)Nc1ccc(S(=O)(=O)N[C@H](C)C2CCNCC2)cc1C(N)=O [Compound 194, (R)-N-(2-carbamoyl-4-(N-(1-(piperidin-4-yl)ethyl)sulfamoyl)phenyl)-2-methylbenzamide]
37 | 302 | Cc1ccccc1C(=O)Nc1ccc(S(=O)(=O)N[C@H](C)C2CCN(C(=O)OC(C)(C)C)CC2)c(C(F)(F)F)c1 [Compound 188, (R)-tert-butyl 4-(1-(4-(2-methylbenzamido)-2-(trifluoromethyl)phenyl-sulfonamido)ethyl)piper-idine-1-carboxylate]
